Among the test systems are HOP-18 NSCLC; SNB-78 CNS; LOX IMVI melanoma; ACHN renal; DLD-1 colon; KM20L2 colon; M19-MEL melanoma; RXF-631 renal; NCI-H522 lung; SF-539 CNS; XF 498 CNS; MCF7 breast; DMS 114 small cell lung; P388/ADR leukemia; DMS 273 small cell lung; P388 leukemia.
What all share (experiment): NCI tumour cell line growth inhibition, 48 h

The text below walks through data of PubChem BioAssay (NCI).

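Compound exposure: 48 hours, 5 concentrations, 96-well plates. Here, GI50 denotes the concentration required for 50% inhibition of growth. TGI: total growth inhibition.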 Some results are limits rather than exact numbers.

With `CC(=O)OC1/C=C(\C)C(OC(C)=O)C/C=C(/C)CCC2C(/C=C/C1=O)C2(C)C` (centres undefined), the TGI with HOP-18 NSCLC, in the experiment on SNB-78 CNS, in the experiment with LOX IMVI melanoma, in the experiment with ACHN renal, in the experiment on DLD-1 colon and with KM20L2 colon was greater than 100 µM throughout. Besides, the TGI in the experiment on M19-MEL melanoma, with RXF-631 renal, in the experiment with NCI-H522 lung, in the experiment with SF-539 CNS and in the experiment with XF 498 CNS was greater than 100 µM throughout.

As for `NS(=O)(=O)c1ccc(/C=C/c2ccc(O)c(O)c2)cc1`, the GI50 in the experiment on LOX IMVI melanoma is 29.9 µM; in the experiment with ACHN renal, 20.4 µM; in the experiment with NCI-H522 lung, 2.25 µM; with SF-539 CNS it was 14.2 µM. Also, the TGI is greater than 100 µM in the experiment on LOX IMVI melanoma; greater than 100 µM in the experiment with ACHN renal; 4.79 µM with NCI-H522 lung; 40.2 µM in the experiment on SF-539 CNS; 51.9 µM in the experiment with MCF7 breast.

For the compound `COC(=O)c1c(O)ccc2c1c1c(n2Cc2cc(OC)cc(OC)c2)C(=O)c2ccccc2C1`, the TGI in the experiment on LOX IMVI melanoma, with SF-539 CNS and with MCF7 breast was greater than 100 µM throughout.

Turning to `CC1(C)OC(C(=O)Nc2cc3c4ccccc4ccc3c3ccccc23)C(C(=O)N2CCCCC2)O1` (centres undefined), the TGI with LOX IMVI melanoma was 25.3 µM; in the experiment with ACHN renal it was greater than 100 µM; in the experiment on NCI-H522 lung, greater than 28.3 µM; in the experiment on SF-539 CNS it was greater than 100 µM; with MCF7 breast, greater than 29.7 µM.

Take `O=P(O)(O)CCP(=O)(O)O`: the TGI in the experiment on LOX IMVI melanoma, with ACHN renal, with NCI-H522 lung, in the experiment on SF-539 CNS and in the experiment on MCF7 breast was greater than 100 µM in each case.

Regarding `NC(CCCCCP(=O)(c1ccccc1)C1C=CC=CC1)C(=O)O` (centres undefined), the TGI in the experiment on LOX IMVI melanoma, with ACHN renal, with NCI-H522 lung, in the experiment on SF-539 CNS and with MCF7 breast was greater than 100 µM each time.

Consider `CCCC(=O)OCC1OC(n2ccc(N)nc2=O)C(OC(=O)CCC)C1OC(=O)CCC` (centres undefined), for which the TGI with HOP-18 NSCLC, in the experiment on SNB-78 CNS, in the experiment on LOX IMVI melanoma, with DMS 114 small cell lung, with DLD-1 colon and in the experiment with KM20L2 colon was greater than 100 µM each time. For the same compound, the TGI in the experiment on M19-MEL melanoma is greater than 100 µM; in the experiment on P388/ADR leukemia, greater than 100 µM; with DMS 273 small cell lung, greater than 100 µM; with NCI-H522 lung, greater than 100 µM; in the experiment with SF-539 CNS, greater than 100 µM; in the experiment with P388 leukemia it was 13.9 µM. The same compound came in with a TGI in the experiment on MCF7 breast greater than 100 µM.

As for `Nc1c(C(=O)O)nnc2ccc(Cl)cc12`, the TGI in the experiment on LOX IMVI melanoma, with ACHN renal, in the experiment with NCI-H522 lung, with SF-539 CNS and in the experiment with MCF7 breast was greater than 100 µM in each case.

`COc1ccc(/C=C2\CCNC2=O)cc1`: the TGI in the experiment with HOP-18 NSCLC, in the experiment on SNB-78 CNS, with LOX IMVI melanoma, in the experiment with DMS 114 small cell lung, in the experiment with DLD-1 colon and in the experiment on KM20L2 colon was greater than 100 µM in each case. Further, the TGI in the experiment with M19-MEL melanoma, with P388/ADR leukemia, in the experiment on DMS 273 small cell lung, in the experiment on NCI-H522 lung, with SF-539 CNS and in the experiment with P388 leukemia was greater than 100 µM in each case. For the same compound, the TGI with XF 498 CNS and in the experiment with MCF7 breast was greater than 100 µM throughout.

Turning to `O=c1sc2ccccc2n1CC1CS1` (centres undefined), the TGI with LOX IMVI melanoma, in the experiment on ACHN renal, in the experiment on DMS 114 small cell lung, with KM20L2 colon, with M19-MEL melanoma and in the experiment with DMS 273 small cell lung was greater than 100 µM throughout. Besides, the TGI in the experiment on NCI-H522 lung, in the experiment with SF-539 CNS and with XF 498 CNS was greater than 100 µM in each case.

With `CN(C)c1ccc(/C=c2/c3ccccc3n3c2c2c([n+]3C)CCCC2)cc1`, the TGI with LOX IMVI melanoma was found to be 1.39 µM; in the experiment on ACHN renal, 1.99 µM; with NCI-H522 lung it was 0.687 µM; in the experiment on SF-539 CNS, 1.42 µM; in the experiment on MCF7 breast it was 0.321 µM.

In the case of `CCOC(=O)CCC(NC(=O)Cc1ccc(Nc2nc3cc(F)c(F)cc3nc2C(=O)OCC)cc1)C(=O)OCC` (centres undefined), the TGI in the experiment on LOX IMVI melanoma, in the experiment with ACHN renal, with NCI-H522 lung, in the experiment on SF-539 CNS and in the experiment on MCF7 breast was greater than 100 µM throughout.

For `O=C1c2cccc3c2C(=O)c2c(cccc21)OCCOCCOCCOCCO3`, the TGI in the experiment on HOP-18 NSCLC, in the experiment on SNB-78 CNS, in the experiment on LOX IMVI melanoma, with ACHN renal, in the experiment on DMS 114 small cell lung and in the experiment with DLD-1 colon was greater than 100 µM in each case. For the same compound, the TGI in the experiment on KM20L2 colon, in the experiment with M19-MEL melanoma, with RXF-631 renal, in the experiment on DMS 273 small cell lung, in the experiment on NCI-H522 lung and with SF-539 CNS was greater than 100 µM throughout.

For the compound `COc1cc2c(cc1OC)C(CC1=C(c3ccccc3)CN3CCc4cc(OC)c(OC)cc4C3C1)NCC2` (centres undefined), the TGI in the experiment with HOP-18 NSCLC was 30.9 µM; in the experiment with SNB-78 CNS, 31.9 µM; in the experiment with LOX IMVI melanoma, 33.6 µM; in the experiment on ACHN renal it was 42.3 µM; in the experiment with DMS 114 small cell lung it was 30.3 µM; in the experiment with DLD-1 colon, 34.9 µM. For the same compound, the TGI with KM20L2 colon amounted to 28.9 µM; with M19-MEL melanoma it was 30.7 µM; with RXF-631 renal, 30.4 µM; with DMS 273 small cell lung it was 31.6 µM; in the experiment with XF 498 CNS it was 25.9 µM.

With `C=CCc1c(O)c2c(c3oc(=O)cc(C)c13)CC(C)O2` (centres undefined), the TGI in the experiment on HOP-18 NSCLC, in the experiment with SNB-78 CNS, in the experiment on LOX IMVI melanoma, with ACHN renal, in the experiment on DMS 114 small cell lung and in the experiment on DLD-1 colon was greater than 100 µM throughout. Besides, the TGI in the experiment with KM20L2 colon, in the experiment on M19-MEL melanoma, with DMS 273 small cell lung, in the experiment on NCI-H522 lung and in the experiment with SF-539 CNS was greater than 100 µM throughout.

For the compound `O=c1cc[nH]c(=O)[nH]1`, the TGI is greater than 1000 µM in the experiment on HOP-18 NSCLC; greater than 1000 µM in the experiment with SNB-78 CNS; 866 µM in the experiment with LOX IMVI melanoma; greater than 1000 µM with DMS 114 small cell lung; greater than 1000 µM in the experiment on DLD-1 colon; greater than 1000 µM with KM20L2 colon. The TGI with M19-MEL melanoma was greater than 944 µM; in the experiment on P388/ADR leukemia it was 807 µM; with DMS 273 small cell lung, greater than 729 µM; in the experiment on NCI-H522 lung, 923 µM; in the experiment with SF-539 CNS, 926 µM; with P388 leukemia it was 447 µM. For the same compound, the TGI in the experiment on XF 498 CNS is 7.72 µM; with MCF7 breast, greater than 1000 µM.

`CO/N=C(\C)c1ccc(Nc2nc3ccccc3c3occc23)cc1`: the TGI with LOX IMVI melanoma came out at 32.1 µM; with ACHN renal, 27.6 µM; in the experiment on NCI-H522 lung it was 24 µM; in the experiment with SF-539 CNS, 27.5 µM; in the experiment on MCF7 breast it was 31 µM.

Regarding `Cc1n(Cc2ccccc2)c2c([n+]1C)C(=O)c1ccccc1C2=O`, the TGI in the experiment with LOX IMVI melanoma amounted to 0.401 µM; in the experiment with ACHN renal it was 11.4 µM; in the experiment with NCI-H522 lung, 0.135 µM; in the experiment with SF-539 CNS it was 0.179 µM; in the experiment with MCF7 breast it was 0.079 µM.

As for `CC(=O)Nc1ccc(N=Nc2c(O)c(S(=O)(=O)O)cc3cc(S(=O)(=O)O)ccc23)cc1`, the TGI with ACHN renal and in the experiment with NCI-H522 lung was greater than 100 µM each time.

Take `O=C(O)C(O)C(O)C(O)C(O)c1nc2ccccc2s1` (centres undefined): the TGI in the experiment with LOX IMVI melanoma came to 36.7 µM; in the experiment with ACHN renal it was 33.2 µM; in the experiment on NCI-H522 lung it was 27.1 µM; in the experiment on SF-539 CNS, 34.1 µM; in the experiment with MCF7 breast, 33.1 µM.

For the compound `Cc1c(O)ccc2c(O)c(NC(=O)c3ccc4c(c3)CCC(C)(C)O4)c(=O)oc12`, the TGI with LOX IMVI melanoma, in the experiment with ACHN renal, in the experiment on NCI-H522 lung, in the experiment on SF-539 CNS and with MCF7 breast was greater than 100 µM throughout.

As for `C[n+]1c2ccc(Cl)cc2nc2cc(-c3ccccc3)ccc21`, the TGI is greater than 100 µM in the experiment with LOX IMVI melanoma; 39.7 µM in the experiment on ACHN renal; 37.9 µM in the experiment with NCI-H522 lung; 34 µM in the experiment on SF-539 CNS; 4.52 µM in the experiment with MCF7 breast.

Consider `CC(=O)c1ccccc1NP(=O)(c1ccccc1)c1ccccc1`, for which the TGI with LOX IMVI melanoma, with ACHN renal, in the experiment with NCI-H522 lung, with SF-539 CNS and in the experiment with MCF7 breast was greater than 100 µM each time.
